This note sets out measurements from PubChem BioAssay AID248 (DTP/NCI, 2004).

This assay concerns L1210 leukemia ip in BDF1 mice, survival T/C. As to the kind of experiment: NCI In Vivo Anticancer Drug Screen. Data for tumor model L1210 Leukemia (intraperitoneal) in B6D2F1 (BDF1) mice. To be noted: endpoint: mean survival time, higher = longer survival. In short, it runs like this: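 Transplanted-tumor mice were given test agent; controls received vehicle only. Survival readings from the two groups were divided (treated over control).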

Where [1] appears, read: dose: 100.0 mg/kg/injection, schedule: Q01DX009 (ip), vehicle: Klucel (hydroxypropylcellulose) (HPC).
[2] abbreviates: dose: 200.0 mg/kg/injection, schedule: Q01DX009 (ip), vehicle: Klucel (hydroxypropylcellulose) (HPC).
Where [3] appears, read: dose: 400.0 mg/kg/injection, schedule: Q01DX009 (ip), vehicle: Klucel (hydroxypropylcellulose) (HPC).
[4] abbreviates: dose: 50.0 mg/kg/injection, schedule: Q01DX001 (ip), vehicle: saline.
Setting [5] is: dose: 100.0 mg/kg/injection, schedule: Q01DX001 (ip), vehicle: saline.
Where [6] appears, read: dose: 200.0 mg/kg/injection, schedule: Q01DX001 (ip), vehicle: saline.
[7] abbreviates: dose: 100.0 mg/kg/injection, schedule: Q01DX009 (ip), vehicle: saline with Tween-80.
The mark [8] stands for this setting: dose: 200.0 mg/kg/injection, schedule: Q01DX009 (ip), vehicle: saline with Tween-80.
Setting [9] is: dose: 100.0 mg/kg/injection, schedule: Q04DX003 (ip), vehicle: Klucel (hydroxypropylcellulose) (HPC).
[10] abbreviates: dose: 200.0 mg/kg/injection, schedule: Q04DX003 (ip), vehicle: Klucel (hydroxypropylcellulose) (HPC).
The mark [11] stands for this setting: dose: 400.0 mg/kg/injection, schedule: Q04DX003 (ip), vehicle: Klucel (hydroxypropylcellulose) (HPC).
Where [12] appears, read: dose: 100.0 mg/kg/injection, schedule: Q04DX002 (ip), vehicle: saline with Tween-80.
The mark [13] stands for this setting: dose: 200.0 mg/kg/injection, schedule: Q04DX002 (ip), vehicle: saline with Tween-80.
The mark [14] stands for this setting: dose: 400.0 mg/kg/injection, schedule: Q04DX002 (ip), vehicle: saline with Tween-80.

Where “and” joins values, the source holds several entries; their conditions need not be identical. Identical values can stand only once. Toxic doses and inconclusive results are not listed.

For the compound `CN(C)c1ccc(/C=N/NC(=O)c2ccccc2NC(=O)c2ccccc2)cc1`, the T/C runs as follows: under setting [1], 89 % of control; under setting [2], 100 % of control; under setting [3], 89 % of control.
Regarding `CCOc1cc(/C=N\N=C\c2ccc(O)c(OCC)c2)ccc1O`, the T/C reads like this: under setting [1], 93 % of control; under setting [2], 94 % of control; under setting [3], 88 % of control.
Regarding `N#Cc1ccc(CCc2ccccc2)cc1`, the T/C is 102 % of control under setting [4]; 102 % of control under setting [5]; 101 % of control under setting [6]; 102 % of control (dose: 400.0 mg/kg/injection, schedule: Q01DX001 (ip), vehicle: saline).
`CNc1cc(C(=O)O)nc(NC)n1`: the T/C is, setting by setting: (dose: 25.0 mg/kg/injection, schedule: Q01DX Z (ip), vehicle: saline) 102 % of control; (dose: 50.0 mg/kg/injection, schedule: Q01DX Z (ip), vehicle: saline) 98 % of control.
As for `Cc1cc(C)c(C)c(OC(=O)Nc2ccc(Cl)cc2C(F)(F)F)c1`, the T/C is 92 % of control (dose: 50.0 mg/kg/injection, schedule: Q01DX009 (ip), vehicle: saline with Tween-80); 103 % of control under setting [7]; 106 % of control under setting [8].
`CCCCNCCOC(=O)c1ccc(N)cc1`: the T/C (dose: 75.0 mg/kg/injection, schedule: Q01DX001 (ip), vehicle: saline) is 106 % of control.
Turning to `c1ccc(CCSc2ccccc2)cc1`, the T/C runs as follows: under setting [7], 102 % of control; (dose: 100.0 mg/kg/injection, schedule: Q04DX003 (ip), vehicle: saline with Tween-80) 103 % of control; under setting [8], 98 % of control; (dose: 200.0 mg/kg/injection, schedule: Q04DX003 (ip), vehicle: saline with Tween-80) 97 % of control; (dose: 400.0 mg/kg/injection, schedule: Q01DX009 (ip), vehicle: saline with Tween-80) 95 % of control; (dose: 400.0 mg/kg/injection, schedule: Q04DX003 (ip), vehicle: saline with Tween-80) 94 % of control.
With `O=P(Oc1ccccc1)(Oc1ccccc1)c1ccccc1`, the T/C is 95 % of control under setting [9], 98 % of control under setting [10] and 98 % of control under setting [11].
For `CCOC(=O)NC(=S)[S][Sb]([S]C(=S)NC(=O)OCC)[S]c1nc2ccc(N=Nc3ccc(NS(=O)(=O)c4ccc(NC(=O)C(Sc5ncnc6nc[nH]c56)SC5N=C=Nc6nc[nH]c65)cc4)cc3)cc2s1` (stereo unspecified), the T/C is, setting by setting: (dose: 75.0 mg/kg/injection, schedule: Q04DX003 (ip), vehicle: saline) 100 % of control; (dose: 150.0 mg/kg/injection, schedule: Q04DX003 (ip), vehicle: saline) 91 % of control; (dose: 300.0 mg/kg/injection, schedule: Q04DX003 (ip), vehicle: saline) 98 % of control.
On to `CC(=O)Nc1ccc(S(=O)(=O)Nc2ccc(N(CCCl)CCCl)cc2)cc1`, for which the T/C was 107 % of control (dose: 50.0 mg/kg/injection, schedule: Q04DX002 (ip), vehicle: saline with Tween-80); 110 % of control under setting [12]; 107 % of control under setting [13]; 110 % of control under setting [14].
`CCOP(=O)(OCC)Oc1c(Cl)c(Cl)c(Cl)c(Cl)c1Cl`: the T/C (dose: 100.0 mg/kg/injection, schedule: Q04DX002 (ip), vehicle: Klucel (hydroxypropylcellulose) (HPC)) is 104 % of control; the T/C (dose: 200.0 mg/kg/injection, schedule: Q04DX002 (ip), vehicle: Klucel (hydroxypropylcellulose) (HPC)) is 100 % of control; the T/C (dose: 400.0 mg/kg/injection, schedule: Q04DX002 (ip), vehicle: Klucel (hydroxypropylcellulose) (HPC)) was 107 % of control.
Turning to `CCCOC(=O)NNC(=O)OCCC`, the T/C (dose: 75.0 mg/kg/injection, schedule: Q01DX009 (ip), vehicle: Klucel (hydroxypropylcellulose) (HPC)) is 93 % of control.
Consider `COc1ccc(OCCS(=O)(=O)C(CCOS(C)(=O)=O)COS(C)(=O)=O)cc1` (stereo unspecified), for which the T/C runs as follows: under setting [1], 96 % of control; under setting [2], 93 % of control; under setting [3], 98 % of control.
In the case of `O=c1[nH]c(=S)[nH]c2c1CP(=S)(c1ccccc1)CC2` (stereo unspecified), the T/C reads like this: under setting [12], 106 % of control; under setting [13], 100 % of control; under setting [14], 100 % of control.
On to `CCCOc1cc(C)c2cc(Cc3cc(C)c4nc(OCCC)cc(C)c4c3)cc(C)c2n1`, for which the T/C reads like this: (dose: 100.0 mg/kg/injection, schedule: Q01DX001 (ip), vehicle: other) 87 % of control; (dose: 200.0 mg/kg/injection, schedule: Q01DX001 (ip), vehicle: other) 95 % of control; (dose: 400.0 mg/kg/injection, schedule: Q01DX001 (ip), vehicle: other) 101 % of control.
With `COc1ccc2c3c1OC1C=CC(O)C4C(C2)N(C)CCC314` (stereo unspecified), the T/C was 98 % of control under setting [5] and 89 % of control under setting [6].
Consider `O=c1[nH]nc(CF)c(=O)[nH]1`, for which the T/C runs as follows: (dose: 5.0 mg/kg/injection, schedule: Q01DX009 (ip), vehicle: saline) 107 % of control; (dose: 6.0 mg/kg/injection, schedule: Q01DX009 (ip), vehicle: saline) 108 % of control; (dose: 10.0 mg/kg/injection, schedule: Q01DX009 (ip), vehicle: saline) 116 % of control; (dose: 11.0 mg/kg/injection, schedule: Q01DX Z (ip), vehicle: saline) 111 % of control; (dose: 12.0 mg/kg/injection, schedule: Q01DX009 (ip), vehicle: saline) 112 % of control; (dose: 14.0 mg/kg/injection, schedule: Q01DX009 (ip), vehicle: saline) 104 % of control. Also, the T/C by setting is: (dose: 16.0 mg/kg/injection, schedule: Q01DX Z (ip), vehicle: saline) 111 % of control; (dose: 20.0 mg/kg/injection, schedule: Q01DX009 (ip), vehicle: saline) 105 % of control and 124 % of control; (dose: 24.0 mg/kg/injection, schedule: Q01DX009 (ip), vehicle: saline) 122 % of control; (dose: 30.0 mg/kg/injection, schedule: Q01DX009 (ip), vehicle: saline) 119 % of control; (dose: 40.0 mg/kg/injection, schedule: Q01DX009 (ip), vehicle: saline) 116 % of control; under setting [4], 110 % of control. Further, under setting [5], the T/C was 119 % of control.
`COc1ccc2c(c1)CC(OC)c1cc3c(nc1-2)-c1ccccc1CC3` (stereo unspecified): the T/C is, setting by setting: under setting [1], 96 % of control; under setting [9], 102 % of control; under setting [2], 103 % of control; under setting [10], 100 % of control; under setting [3], 100 % of control; under setting [11], 98 % of control.
Regarding `CN1CC=C(/C=C/c2cccc3ccccc23)CC1`, the T/C by setting is: (dose: 25.0 mg/kg/injection, schedule: Q01DX009 (ip), vehicle: saline) 100 % of control; (dose: 50.0 mg/kg/injection, schedule: Q01DX009 (ip), vehicle: saline) 103 % of control; (dose: 100.0 mg/kg/injection, schedule: Q01DX009 (ip), vehicle: saline) 114 % of control; (dose: 100.0 mg/kg/injection, schedule: Q04DX003 (ip), vehicle: saline) 103 % of control.
`COCCOC`: the T/C (dose: 86.0 mg/kg/injection, schedule: Q01DX Z (ip), vehicle: saline) was 103 % of control; the T/C (dose: 100.0 mg/kg/injection, schedule: Q04DX003 (ip), vehicle: acetone) is 107 % of control; the T/C (dose: 125.0 mg/kg/injection, schedule: Q01DX Z (ip), vehicle: saline) is 106 % of control; the T/C (dose: 130.0 mg/kg/injection, schedule: Q01DX Z (ip), vehicle: saline) is 106 % of control; the T/C (dose: 200.0 mg/kg/injection, schedule: Q04DX003 (ip), vehicle: acetone) was 102 % of control; the T/C (dose: 250.0 mg/kg/injection, schedule: Q01DX Z (ip), vehicle: saline) is 113 % of control. Besides, the T/C reads like this: (dose: 400.0 mg/kg/injection, schedule: Q04DX003 (ip), vehicle: acetone) 102 % of control; (dose: 450.0 mg/kg/injection, schedule: Q01DX Z (ip), vehicle: saline) 154 % of control; (dose: 500.0 mg/kg/injection, schedule: Q01DX Z (ip), vehicle: saline) 116 % of control; (dose: 675.0 mg/kg/injection, schedule: Q01DX Z (ip), vehicle: saline) 150 % of control and 160 % of control; (dose: 1500.0 mg/kg/injection, schedule: Q01DX Z (ip), vehicle: saline) 96 % of control.
